From US20210252159A1, “CONJUGATES OF CARTILAGE-HOMING PEPTIDES” (priority 2018, published 2021)

Legend:
[1] = Rat CIA biodistribution study (QWBA); assay type: in vivo; conditions: CIA rats
Description: 50 uCi, 400 nmol of each compound was given intravenously (IV) through the tail vein and allowed to circulate 1 hour, 3 hours, or 24 hours. Rats were euthanized by CO2 asphyxiation, shaved, and frozen in dry ice chilled hexane. QWBA was performed and quantified as described.
Frozen carcasses were allowed to off gas hexane overnight at −20° and then embedded in chilled 2% carboxymethylcellulose (Sigma Aldrich) and sectioned sagittally at a thickness of 40 μm on an H/I Bright 8250 Cryostat (Hacker Instruments). Radioactive control guides were drilled into each block to verify even cutting depth along the length of the section. […]
(§1) Quantification of the radioactivity detected in WBA samples was evaluated by measuring the pixel density/mm^2 (“SI”: Signal Intensity/Area−background) using AIDA Image Analyzer v 5.1 Whole Body Autoradiography Professional software (Raytest). […] For quantification, all visible knee or IVD (intervertebral disc) tissues for one rodent across all collected sections were measured and averaged together to generate one knee or IVD value per animal. […] To collect quantified values for other tissues, ROIs were drawn around blood in the heart ventricle, spinotrapezius muscle, the liver, or the kidney (including cortex and medulla) in all sections in which the tissue was observed and then averaged to yield one value per tissue per animal. […]

[2] = Resistance to chemical reduction (50 mM DTT, LC-MS); assay type: physicochemical; conditions: 50 mM DTT for 60 minutes at room temperature
Description: The synthetically produced peptides were then analyzed side-by-side with peptides produced in the recombinant expression system as described above in EXAMPLE 1.

[3] = Comparison of joint retention time among radiolabeled peptides (QWBA, knee and IVD); assay type: in vivo; design: Peptide Signal Retention in Knee / Peptide Signal Retention in IVD: unit not given here
Description: Frozen carcasses were allowed to off gas hexane overnight at −20° and then embedded in chilled 2% carboxymethylcellulose (Sigma Aldrich) and sectioned sagittally at a thickness of 40 μm on an H/I Bright 8250 Cryostat (Hacker Instruments). Radioactive control guides were drilled into each block to verify even cutting depth along the length of the section. The radioactive guide consisted of ^14C-Glycine (American Radiolabeled Chemicals, “ARC”) at 0.5 uCi/ml in 0.5% BSA (Sigma Aldrich) in PBS. Sections were collected onto 4-inch wide tape (Scotch 821, ULINE) at 2-4 depths to sample approximately 30 tissues with particular focus on the knees and spine. Collected sections were freeze dried in the cryostat for 48-72 hours then mounted on sturdy paper and covered with a single protective layer of cellophane (Reynolds Food Service Film). Mounted sections were exposed to phosphor imager plates (Raytest) along with a radioactive standard Curve (1465-PL, ARC) for 7-days, scanned on a Raytest CR-35 at “25 μm sensitive” setting.
Quantification of the radioactivity detected in WBA samples was evaluated by measuring the pixel density/mm^2 (“SI”: Signal Intensity/Area−background) using AIDA Image Analyzer v 5.1 Whole Body Autoradiography Professional software (Raytest). Regions of interest (ROIs) were drawn manually around the entire visible tissue, comparing the sectioned sample to the autoradiogram. For quantification, all visible knee or IVD (intervertebral disc) tissues for one rodent across all collected sections were measured and averaged together to generate one knee or IVD value per animal. Typically were sampled 1-2 knee values (from femoral and tibial cartilage) per 1-2 sections per animal and 3-10 IVD per 1-2 sections per animal. To collect quantified values for other tissues, ROIs were drawn around blood in the heart ventricle, spinotrapezius muscle, the liver, or the kidney (including cortex and medulla) in all sections in which the tissue was observed and then averaged to yield one value per tissue per animal.
Data were presented as nmol of compound per gram of tissue. The commercial standard strips co-exposed with each WBA sample set were calibrated so that a known amount of radioactive counts per minute (CPM) per gram of tissue, determined by liquid scintillation counting (LSC), corresponded to the measured WBA SI at 11 standard strip concentration data points. The regression line of the log 10 transformed WBA signal intensity plotted against the log 10 transformed CPM/g gave a linear range of 1×10^5 to 7.5×10^7 WBA SI, corresponding to 6.3 nCi/g to 3.3 μCi/g. The log 10 concentration of radioactivity in each tissue (CPM/g) was interpolated from the standard curve, converted to linear values, and translated from CPM/g to uCi/g by interpolation against an LSC CPM to μCi standard curve. Uptake (nmol of compound/g of tissue) was determined by dividing the μCi/g tissue by the μCi/nmol specific activity of the peptide.
Peptide(SEQ ID NO: 105) was dosed at 57-60 nmol. Peptide(SEQ ID NO: 103) was dosed at 130 nmol. Peptide(SEQ ID NO: 184) was dosed at 150 nmol. […] It should be noted that detection of retention is based on an assay that detects radiolabeling of the N-terminus of each of the tested conjugates, thus decrease in signal over time may be due not only to peptide diffusion back out of the cartilage but also aminopeptidase-mediated removal of N-terminal amino acid, general peptide cleavage, or other mechanisms. Results as measured by QWBA methods described herein are shown in Tables 6 and 7 below and FIG. 11.

[4] = Immunohistochemistry of knee and ankle sections with anti-peptide(SEQ ID NO: 105) and anti-Dex antibodies; assay type: in vivo, C57/Bl6 mice; conditions: mice, 100 nmol IV, three hours
Text: Immunohistochemistry methods were developed to detect peptide(SEQ ID NO: 105) and dexamethasone in cartilage of joints using a generated rabbit polyclonal anti-peptide(SEQ ID NO: 105) antibody and a commercially available anti-Dex antibody (Abcam, ab35000). Standard immunization methods were used to generate the anti-peptide(SEQ ID NO: 105) polyclonal antibody, which increases the immunogenicity of the dosed material and are not representative of potential immunogenicity of the unmodified peptide or therapeutic candidate molecules. To produce the immunogen for peptide(SEQ ID NO: 105) antibody generation, peptide(SEQ ID NO: 105) was conjugated to keyhole limpet hemocyanin (KLH) using ImjectTMmcKLH. Peptide(SEQ ID NO: 105)-KLH was administered as part of a pool of other KLH-conjugated peptides emulsified with Freund's complete adjuvant and administered to New Zealand White Rabbits following a standard schedule. The polyclonal antibody was purified from the serum using a HiTrap® mAb Select cartridge (GE Healthcare). Western blot was used to confirm antibody binding to the peptide. […]

[5] = Biodistribution in mice of stable peptide-TAA conjugate by whole body autoradiography (QWBA); assay type: in vivo; conditions: 100 nmol IV, 3 hours and 24 hours
Description: Peptide(SEQ ID NO: 105)-^14C-Cys-TAA (38, the radiolabeled conjugate prepared in EXAMPLE 7) (“peptide(SEQ ID NO: 105)-^14C-Cys” is disclosed as SEQ ID NO: 512) or ^14C-Cys-TAA was resuspended in 5% DMSO in water. The amount of radioactivity per μ1 of solution was measured using liquid scintillation counting (LSC). Each compound was administered intravenously to mice at a dose of 12.4 μCi (100 nmol) and allowed to circulate for the designated time intervals. The mice were then humanely euthanized and carcasses were frozen in dry ice chilled hexane. QWBA was performed and quantified as described. […]
as §1

With “GSGVPINVRCRGSRDCLDPCRRAGMRFGRCINSRCHCTP [peptide(SEQ ID NO: 105)]” the “accumulation in other tissues of the body” value ([1]; 400 nmol IV, 1, 3, 24 hrs, except liver and kidney) was “minimal accumulation”, the “signal in cartilage (whole body autoradiography)” value ([1]; 400 nmol IV, 1 hr, 3 hrs, 24 hrs) was “signal can be detected” and the “resistance to chemical reduction” value [2] was “very little formation of a new peak”. For the same substance, the “Peptide Signal Retention in IVD” value ([3]; 0.08 Hours) was 44.42, the “Peptide Signal Retention in Knee” value ([3]; 0.08 Hours) was 91.00 and the “Peptide Signal Retention in IVD” value ([3]; 0.5 Hours) was 101.41. The “Peptide Signal Retention in Knee” value ([3]; 0.5 Hours) was 102.49, the “Peptide Signal Retention in IVD” value ([3]; 1 Hours) was 100.00 and the “Peptide Signal Retention in Knee” value ([3]; 1 Hours) was 100.00. For the same substance, the “Peptide Signal Retention in IVD” value ([3]; 3 Hours) was 106.39, the “Peptide Signal Retention in Knee” value ([3]; 3 Hours) was 72.64 and the “Peptide Signal Retention in IVD” value ([3]; 8 Hours) was 81.45. The “Peptide Signal Retention in Knee” value ([3]; 8 Hours) was 42.42, the “Peptide Signal Retention in IVD” value ([3]; 24 Hours) was 36.89 and the “Peptide Signal Retention in Knee” value ([3]; 24 Hours) was 22.61. The “Peptide Signal Retention in IVD” value ([3]; 48 Hours) was 19.96, the “Peptide Signal Retention in Knee” value ([3]; 48 Hours) was 9.73 and the “Peptide Signal Retention in IVD” value ([3]; 72 Hours) was 13.43. The “Peptide Signal Retention in Knee” value ([3]; 72 Hours) was 8.76, the “Peptide Signal Retention in IVD” value ([3]; 96 Hours) was 9.17 and the “Peptide Signal Retention in Knee” value ([3]; 96 Hours) was 5.05. For the same substance, the “Immunostaining with anti-peptide(SEQ ID NO: 105) antibody in articular cartilage and growth plates of knee joint sections” value [4] was “strong positive staining”.

In the case of “^14C-Cys-triamicinolone acetonide [^14C-Cys-TAA, reference compound]”, the “signal in cartilage (whole body autoradiography)” value [5] is reported as “no observable signal”.
